Entries after “also recorded” stand apart in the source; their conditions may differ. Where no end group is shown, it is not given here.
Columns and labels:
isolated mitochondria = assay: Mitochondrial swelling followed spectrophotometrically at 520 nm (FIG. 3A); type: biochemical, rats; conditions: 0.5 mM, positive control
Method: Consistent with these observations, molecules such as Bcl-2 which inhibit apoptosis inhibit mitochondrial swelling. Briefly, mitochondria were prepared as previously described (Ellerby et al. J. Neurosci. 17:6165-6178 (1997)) except for the following modifications. The rats were sacrificed by CO2 inhalation without fasting and the mitochondria were isolated in MIB buffer (210 mM mannitol, 70 mM sucrose, 0.05% BSA, 1 mM EGTA, 5 mM Hepes-NaOH, pH 7.4). The mitochondrial pellet samples resuspended in MCB buffer (300 mM mannitol, 10 mM KH2 PO4, 0.1% BSA, pH 7.2) and applied to a discontinuous sucrose gradient (1.6 M sucrose, 10 mM KH2 PO4, pH 7.5; 1.2 M sucrose, 10 mM KH2 PO4, pH 7.5) were centrifuged at 48,500 g for 1 hour. […] The mitochondrial pellets were collected, resuspended in MSB, and stored on ice. After the addition of 50 μM of the peptide, mitochondrial swelling was followed spectrophotometrically at 520 nm (Petronilli et al. J. Biol. Chem. 269:16638-16642 (1994)) in CFS (220 mM mannitol, 68 mM sucrose, 2 mM NaCl, 5 mM KH2 PO4, 2 mM MgCl2, 5 mM succinate, 10 mM Hepes-NaOH, 2 mM ATP, 50 μg/ml creatine kinase, 10 mM phosphocreatine, 0.75 μg/ml rotenone, pH 7.4).

293T cells = assay: Apoptosis in 293T cells expressing FKBP/p75^NTR chimeras with or without FK1012; type: cell-based; conditions: 2 μM FK1012, 35 μM tamoxifen
From the text: The FKBP12-tagging vector MF1E/MF3E, which included an amino-terminal myristylation site for membrane insertion (Spencer et al. Science 262:1019-1024 (1993)), contains one and three repeats of the FK-binding protein (FKBP) sequence. The FKBP12 vector served as a PCR template and was amplified using primers flanked by Nhe I (5' primer) or Nde I (3' primer) sites to produce DNA fragments consisting of one or three FK-binding domains (FKBP). The resulting PCR products contained either one or three FKBP sequence repeats and were subcloned into pcDNA3.1. A DNA fragment encoding an intracytoplasmic form of p75^NTR was removed from the pUC18-p75 plasmid by digestion with Nde I and Bam HI, and the DNA fragment was ligated to the carboxy-terminus of the FKBP sequences within the pcDNA3.1-FKBP construct. The resulting two expression vectors encoded FKBP/p75^NTR chimeras comprising one or three FKBP repeats at the amino-terminus fused to an intracytoplasmic form of p75^NTR at the carboxy-terminus.
The stimulation of cellular apoptosis by Fas and TNFR I is induced by ligand binding which triggers multimerization of Fas and TNFR I. The assembly of such a death-inducing signaling complex contributes to cellular apoptosis by activating caspase-8. The effect that dimerization or multimerization has on the ability of p75^NTR to stimulate apoptosis was analyzed. […]

PC3 = assay: Cell viability after peptide treatment, PC3; type: cell-based, human; conditions: 50 μM stated for tat-GG-SATLDALLAALRRI; 18 hours
Method: (§1) Briefly, NTera 2 human neuronal cells, R2 neural cells, CSM14.1 neural cells, LNCaP cells, SH-SY5Y human neuroblastoma cells and PC12 NRA5 cells were grown in DMEM/F12 (50/50) supplemented with 5% fetal bovine serum and seeded onto 96-well plates. […] The purified peptides were dissolved in tissue culture grade water and diluted to 50 μM and 100 μM in serum free medium and directly added to the cells in 96-well plates. The cells were incubated at 37° C. for 18 hours and 20 μM propidium iodide was added. Cell viability was determined using a fluorimeter as previously described (Kane et al. J. Neurosci. Res. 40:269-275 (1995)).

LNCaP cells = assay: Cell viability after peptide treatment, LNCaP; type: cell-based; conditions: 50 μM stated for tat-GG-SATLDALLAALRRI; 18 hours
Method: as §1

[1] = test system: NTera 2 human neuronal cells; assay: Cell viability after peptide treatment, NTera 2; type: cell-based; conditions: 50 μM stated for tat-GG-SATLDALLAALRRI; 18 hours
Method: as §1

PC12 NRA5 cells = conditions: 100 μM peptide; 18 hours
Method: Briefly, NTera 2 human neuronal cells, R2 neural cells, CSM14.1 neural cells, LNCaP cells, SH-SY5Y human neuroblastoma cells and PC12 NRA5 cells were grown in DMEM/F12 (50/50) supplemented with 5% fetal bovine serum and seeded onto 96-well plates. The peptides were synthesized and HPLC purified (Coast Scientific, San Diego, Calif.). The purified peptides were dissolved in tissue culture grade water and diluted to 50 μM and 100 μM in serum free medium and directly added to the cells in 96-well plates. The cells were incubated at 37° C. for 18 hours and 20 μM propidium iodide was added. Cell viability was determined using a fluorimeter as previously described (Kane et al. J. Neurosci. Res. 40:269-275 (1995)).

COS-7 = assay: Cell viability after peptide treatment, COS-7; type: cell-based; conditions: 50 μM stated for tat-GG-SATLDALLAALRRI; 18 hours
Method: as §1

[2] = test system: NTera 2, R2, CSM14.1, LNCaP, SH-SY5Y and PC12 NRA5 cells; assay: Induction of cell death by peptides added to cells (propidium iodide, Table 1); type: cell-based; conditions: peptide 50 μM and 100 μM in serum free medium, 18 hours
Method: A region of a dependence polypeptide that mediates apoptosis in cells was analyzed for its ability to stimulate apoptosis in cells. […] The effect of replacing leucine with lysine at position 7 (purple, […]; SEQ ID NO:41; tat-purple, tat-GG-[…]; SEQ ID NO:42), removing the carboxy-terminal "RRI" sequence (gray, SATLDALLAAL; SEQ ID NO:43; tat-gray, tat-GG--SATLDALLAAL; SEQ ID NO:44) or amino-terminal "SATLD" sequence (green; […]; SEQ ID NO:45) on the proapoptotic activity of a dependence peptide was examined. […] The 12 amino acid HIV tat protein fragment ([…]; SEQ ID NO:52; hereinafter termed "tat"), which facilitates cellular entry, also was included on the amino terminus of some of the peptides tested. […] For convenience, the hyphen in the above amino acid sequences is a nomenclature intended to set apart the proapoptotic dependence peptides and variants thereof or control peptides from other amino acid residues contained in the peptide.

[3] = test system: SH-SY5Y human neuroblastoma cells; assay: Cell death by tat-linked peptides and mutated variants in SH-SY5Y cells (FIG. 2); type: cell-based; conditions: relative to unmutated tat-GG-SATLDALLAALRRI
Method: To further analyze the effect of particular point mutations on apoptosis, additional studies employing dependence peptides and mutated variants linked to tat were performed in SH-SY5Y cells. The results shown in FIG. 2 are of studies in which quadruplicate samples were averaged, and the studies were repeated 2 to 10 times for each peptide. Each column represents the percentage cell death and the bars indicate the standard error. The amount of peptide added to the cells is indicated above each column.

Row | Compound | cell viability, PC3 (PC3) | cell viability, LNCaP (LNCaP cells) | cell viability, NTera 2 [1] | cell viability, COS-7 (COS-7) | other results
1 | [Ca+2].[Cl-].[Cl-] [calcium chloride] |  |  |  |  | mitochondrial swelling (decreased absorbance at 520 nm) (isolated mitochondria): rapid swelling
2 | FK1012 |  |  |  |  | apoptosis of cells containing single copy or triple copy FKBP/p75^NTR protein chimera (293T cells): apoptosis was blocked
3 | GRKKRRQRRRPPGGDLSLARLATARLAI [tat-yellow, reference compound] | 97% |  |  |  | 
4 | GRKKRRQRRRPPGGKDRNLRRITRMVLV [tat-turquoise, reference compound] | 87.9% | 46.7% | 67.6% |  | cell viability, NRA 5 cells (PC12 NRA5 cells): 95.7%
5 | GRKKRRQRRRPPGGSATLDAKLAALRRI [tat-purple] | 92.8% |  | 69.3% | 97.8% | 
6 | GRKKRRQRRRPPGGSATLDALLAAL [tat-gray, tat-GG-SATLDALLAAL] | 90.5% | 59.1% | 76.7% | 97.1% | 
7 | GRKKRRQRRRPPGGSATLDALLAALRRI [tat-blue] | 4.2% | 0% | 1.3% | 1.5% | cell viability, NRA 5 cells (PC12 NRA5 cells): 0%
8 | INLKALAALAKKIL [MP] |  |  |  |  | Effect on apoptosis [2]: underwent apoptosis; also recorded: Apoptotic
9 | tat-GG-SATLDALLAALOOI (GRKKRRQRRRPPGGSATLDALLAALQQI) [arginines at positions 12 and 13 replaced with glutamine] |  |  |  |  | decrease of the ability to stimulate SH-SY5Y cell death [3]: 80%

From patent US6235872A, “Proapoptotic peptides dependence polypeptides and methods of use” (The Burnham Institute, priority 1998, dated 2001)
